Patent US6413948B1, “Pharmaceutical compositions and methods of effecting a neuronal activity in an animal using naaladase inhibitors” (Guilford Pharmaceuticals Inc., priority 1996, dated 2002)
Like-named read-outs stand apart in the source and are kept apart here. Residues, ends and D or L forms follow the SMILES beside them.

Assays:
NAALADase [1] = biological target: T1, NAALADase (UniProt P70627); experiment: In vitro inhibition of NAALADase activity; type: biochemical; details: for Ki: [3H]Glu liberated from [3H]NAAG, synaptosomal protein, 15 minutes at 37° C.; for NAALADase inhibiting activity (comparison in words): compared with 2-(phosphonomethyl)pentanedioic acid
T1 construct: Ki; other: compared with 2-(phosphonomethyl)pentanedioic acid
Procedure: Various compounds of formula I were tested for in vitro inhibition of NAALADase activity.
Substrate and product were resolved by anion-exchange liquid chromatography. […] Quisqualate (100 μM) was included in parallel assay tubes to confirm the specificity of the measurements.

cortical cell cultures [2] = experiment: In vitro toxicity of NAAG; type: cell-based, rats; details: 20 minutes
Procedure: See TABLE VII for the Dissociated Culture Protocol as used herein. […] Experiments are performed after 21 days in cultures.
At the end of exposure, the cells are washed once with HEPES buffered saline solution and then replaced with serum free modified Earle's basal medium. The cultures are then returned to the CO2 incubator for 24 hour recovery.
This control measurement is subtracted from each experimental point.

NAALADase [3] = details: NAAG as substrate of NAALADase; cited from earlier work
cortical cell cultures [4] = experiment: In vitro assay of NAALADase inhibitors on ischemia (potassium cyanide and 2-deoxyglucose, LDH release); type: cell-based, rats; details: Rattus norvegicus, 1 h, read-out: EC50 (concentration required to cause a 50% reduction in glutamate toxicity following an ischemic insult)
Procedure: The methods for this assay are described in detail below.
Dissociated cortical cell cultures are prepared using the papain-dissociation method of Heuttner and Baughman (1986) as modified by Murphy and Baraban (1990). […] Fetuses of embryonic day 17 are removed from timed pregnancy rats (Harlan Sprague Dawley). The cortex is rapidly dissected out in Dulbecco's phosphate-buffered saline, stripped of meninges, and incubated in a papain solution for 15 minutes at 37° C. The tissue is then mechanically triturated and pelleted at 500 g (1000-2000 rpm on swinging bucket Beckman). The pellet is resuspended in a DNAase solution, triturated with a 10 ml pipette ×15-20, layered over a “10×10” solution containing albumin and trypsin inhibitor (see TABLE VII for an example of a “10×10” solution), repelleted, and resuspended in a plating medium containing 10% fetal bovine serum (HyClone A-1111-L), 5% heat-inactivated Equine serum (HyClone A-3311-L), and 84% modified Earle's basal medium (MEM) (Gibco 51200-020) with high glucose (4.5 g/L), and 1 g/L NaHCO3. Each 24-well plate is pretreated with poly-D-lysine (0.5 ml/well of 10 μg/ml) for 1 h and rinsed with water before plating. Cultures are plated at 2.5×10^6 cells/ml with each well of a 24 well plate receiving 500 μl/well. Alternatively, 35 mm dishes can be plated at 2 ml/dish, 6 well plates at 2 ml/well, or 12 well plates at 1 ml/well. After plating, 50% of the medium is changed every 3-4 days with growth serum containing 5% heat-inactivated Equine serum (HyClone A3111-L), 95% modified Earle's basal medium (MEM)(Gibco 51200-020), and 1% L-Glutamine (Gibco 25030-081). Experiments are performed after 21 days in cultures. Cultures are maintained in a 5% CO2 atmosphere at 37° C.
Twenty-one to twenty-four days following the initial cortical cell plating, the experiment is performed. The cultures are washed three times in HEPES buffered saline solution containing no phosphate. […] At the end of 24 hours, the cultures are analyzed for release of the cytosolic enzyme lactate dehydrogenase (LDH), a standard measure of cell lysis. LDH measurements are performed according to the method of Koh and Choi, J. Neuroscience Methods (1987).
Release of the cytosolic enzyme lactate dehydrogenase (LDH), a standard measure of cell lysis, is used to quantify injury (Koh and Choi, 1987). LDH-activity measurements are normalized to control for variability between culture preparations (Koh and Choi, 1987). […] This control measurement is subtracted from each experimental point. […] Only main effects of NAALADase inhibitors are considered; interactions between dose and condition are not examined statistically.

[5] = system: spinal cord organotypic cultures; experiment: Spinal cord culture model of ALS (THA toxicity, ChAT activity); type: cell-based, rats; details: Table XII; THA without inhibitor
Procedure: Organotypic cultures were prepared from lumbar spinal cord of 8 day old rats, as described by Rothstein et al., J. Neurochem., Vol. 65, No. 2 (1995), and Rothstein et al., Proc. Natl. Acad. Sci. USA, Vol. 90, pp. 6591-6595 (July 1993). In brief, lumbar spinal cords were removed and sliced into 300 […] sections, and five slices were placed on Millipore CM semipermeable 30-mm-diameter membrane inserts. The inserts were placed on 1 ml of culture medium in 35-mm-diameter culture wells. Culture medium consisted of 50% minimal essential medium and phosphate-free HEPES (25 mM), 25% heat-inactivated horse serum, and 25% Hanks' balanced salt solution (GIBCO) supplemented with D-glucose (25.6 mg/ml) and glutamine (2 mM), at a final pH of 7.2. Antibiotic and antifungal agents were not used. Cultures were incubated at 37° C. in 5% CO2 containing humidified environment (Forma Scientific). Culture medium, along with any added pharmacological agents, was changed twice weekly.
Drugs were incubated for an additional 13 to 20 days with the 100 μM THA. At the end of this period, cultures were collected assayed for ChAT activity as described below.
To determine choline acetyltransferase (ChAT) activity, the spinal cord tissues in each dish (five slices) were pooled and frozen (−75° C.) until assay. ChAT activity was measured radiometrically by described methods using [^3H] acetyl-CoA (Amersham; Fonnum, 1975). Protein content of tissue homogenate was determined by a Coomassi Protein Assay kit (Pierce, Rockford, Ill.).

MPTP lesioned mice = experiment: In vivo assay on Parkinson's Disease (MPTP lesioned mice, TH immunostaining); design: species or system CD1 white mice
Procedure: MPTP lesioning of dopaminergic neurons in mice was used as an animal model of Parkinson's Disease, as described by Steiner, Proc. Natl. Acad. Sci., Vol. 94, pp. 2019-2024 (March 1997). In brief, four week old male CD1 white mice were dosed IP with 30 mg/kg of MPTP for 5 days. […] At 18 days following MPTP treatment, the mice were sacrificed and their brains were removed and sectioned. Immunostaining was performed on saggital and coronal brain sections using anti-tyrosine hydroxylase (TH) antibodies to quantitate survival and recovery of dopaminergic neurons.

[6] = treated during ischemic insult and for one hour thereafter

Compound	Ki (NAALADase [1])	EC50 (cortical cell cultures [4]; [6])	other results
O=C(O)C(CCc1ccccc1)CP(=O)(O)O (centres unmarked) [drawing 33]	199 nM		
CP(=O)(O)CC(CCC(=O)O)C(=O)O (centres unmarked)	1100 nM		
O=C(O)CCC(CP(=O)(O)CCC(=O)O)C(=O)O (centres unmarked) [2-[[(2-carboxyethyl)hydroxyphosphinyl]methyl]pentanedioic acid]	1.89 ± 0.19 nM		NAALADase inhibiting activity (comparison in words) (NAALADase [1]): lower NAALADase inhibiting activity
CC(=O)N[C@@H](CC(=O)O)C(=O)N[C@@H](CCC(=O)O)C(=O)O [NAAG, N-acetyl-aspartyl-glutamate] (Ac-Asp-Glu-OH)			% Toxicity (cortical cell cultures [2]; NAAG 3 μM): 3.51 (n = 1) %; % Toxicity (cortical cell cultures [2]; NAAG 10 μM): 4.30 ± 3.12 (n = 3) %; % Toxicity (cortical cell cultures [2]; NAAG 30 μM): 11.40 ± 6.17 (n = 3) %; % Toxicity (cortical cell cultures [2]; NAAG 100 μM): 12.66 ± 5.50 (n = 3) %; % Toxicity (cortical cell cultures [2]; NAAG 300 μM): 13.50 ± 4.0 (n = 3) %; % Toxicity (cortical cell cultures [2]; NAAG 1 mM): 21.46 ± 4.20 (n = 3) %; % Toxicity (cortical cell cultures [2]; NAAG 3 mM): 45.11 ± 4.96 (n = 3) %; Km (NAALADase [3]): 0.54 µM
O=C(O)CCC(CP(=O)(O)Cc1ccccc1)C(=O)O (centres unmarked) [drawing 18]	34.1 nM		
Cc1ccc(CP(=O)(O)CC(CCC(=O)O)C(=O)O)cc1 (centres unmarked) [drawing 27]	68 nM		
O=C(O)CCC(CP(=O)(O)c1ccc(F)cc1)C(=O)O (centres unmarked)	532 nM		
O=C(O)CCC(CP(=O)(O)c1ccccc1)C(=O)O (centres unmarked) [drawing 19]	35.8 nM		
O=C(O)C(CCc1ccccc1)CP(=O)(O)O (centres unmarked) [drawing 40]		373 nM	
N[C@H](C(=O)O)[C@H](O)C(=O)O [THA, threohydroxyaspartate, reference compound]			ChAT Activity (% of Control) [5]: 0 % of Control
O=C(O)CCC(CP(=O)(O)Cc1ccc(F)cc1)C(=O)O (centres unmarked) [drawing 47]		79 nM	
O=C(O)CCC(CP(=O)(O)O)C(=O)O (centres unmarked) [drawing 39]			EC50 (cortical cell cultures [4]): 0.67 nM
O=C(O)CCC(CP(=O)(O)C(O)c1ccccc1)C(=O)O (centres unmarked) [drawing 44]		767 nM	
O=C(O)CCC(CP(=O)(O)CCCc1ccccc1)C(=O)O (centres unmarked) [drawing 50]		4320 nM	
O=C(O)CCC(CP(=O)(O)Cc1ccccc1F)C(=O)O (centres unmarked)	145 nM		
Cc1ccc(P(=O)(O)CC(CCC(=O)O)C(=O)O)cc1 (centres unmarked)	204 nM		
O=C(O)CCC(CP(=O)(O)Cc1ccccc1C(F)(F)F)C(=O)O (centres unmarked)	92 nM		
O=C(O)CCC(CP(=O)(O)Cc1ccc(O)cc1)C(=O)O (centres unmarked)	117 nM		
O=C(O)CCC(CP(=O)(O)Cc1ccc(F)cc1)C(=O)O (centres unmarked) [drawing 28]	70 nM		

Compound	Ki (NAALADase [1])	EC50 (cortical cell cultures [4]; [6])	other results
O=C(O)CCC(CP(=O)(O)Cc1c(F)c(F)c(F)c(F)c1F)C(=O)O (centres unmarked) [drawing 48]		2 nM	
O=C(O)CCC(CP(=O)(O)CCCc1ccccc1)C(=O)O (centres unmarked) [drawing 24]	232 nM		
O=C(O)CCCC(CP(=O)(O)O)C(=O)O (centres unmarked)	185 nM		
CCCCP(=O)(O)CC(CCC(=O)O)C(=O)O (centres unmarked) [drawing 45]		794 nM	
CN1CC=C(c2ccccc2)CC1 [MPTP, reference compound]			loss of functional dopaminergic terminals as compared to non-lesioned mice (MPTP lesioned mice; MPTP and vehicle): approximately 68%; Percent Strial TH Innervation Density (mean ± SEM) (MPTP lesioned mice; MPTP/vehicle, MPTP 30 mg/kg IP for 5 days): 7.82 ± 0.68%
O=C(O)CC(CP(=O)(O)O)C(=O)O (centres unmarked) [2-(phosphonomethyl)succinic acid]	700 ± 67.3 nM		NAALADase inhibiting activity (comparison in words) (NAALADase [1]): much lower NAALADase inhibiting activity
CCCCP(=O)(O)CC(CCC(=O)O)C(=O)O (centres unmarked) [drawing 21]	113 nM		
O=C(O)CCC(CP(=O)(O)CCc1ccccc1)C(=O)O (centres unmarked) [drawing 49]		834 nM	
O=C(O)CCC(CP(=O)(O)c1ccccc1)C(=O)O (centres unmarked) [drawing 43]		100 nM	
COc1ccc(CP(=O)(O)CC(CCC(=O)O)C(=O)O)cc1 (centres unmarked) [drawing 51]		1670 nM	
O=C(O)CCC(CP(=O)(O)Cc1ccccc1)C(=O)O (centres unmarked) [drawing 42]		132 nM	
Cc1ccc(CP(=O)(O)CC(CCC(=O)O)C(=O)O)cc1 (centres unmarked) [drawing 46]		37 nM	
O=C(O)CCC(CP(=O)(O)Cc1ccc(OCc2ccccc2)cc1)C(=O)O (centres unmarked)	177 nM		
Cc1cccc(P(=O)(O)CC(CCC(=O)O)C(=O)O)c1 (centres unmarked)	180 nM		
O=C(O)CCC(CP(=O)(O)Cc1cccc(C(F)(F)F)c1)C(=O)O (centres unmarked) [drawing 41]		112 nM	
O=C(O)CCC(CP(=O)(O)CCc1ccccc1)C(=O)O (centres unmarked) [drawing 23]	148 nM		
O=C(O)CCC(CP(=O)(O)Cc1c(F)c(F)c(F)c(F)c1F)C(=O)O (centres unmarked) [drawing 31]	22.7 nM		
O=C(O)CCC(CP(=O)(O)Cc1cccc(C(F)(F)F)c1)C(=O)O (centres unmarked) [drawing 36]	22.5 nM		
